Test results as given in patent US20140242120A1, “SUBSTITUTED AROMATIC COMPOUNDS FOR INFLAMMATION AND IMMUNE-RELATED USES” (Synta Pharmaceuticals Corp., priority 2006, published 2014).

tested on: IL-2 production; assay: Inhibition of IL-2 production in PHA-activated Jurkat cells (ELISA); format: cell-based; settings: Homo sapiens, PHA 2.5 μg/mL, 20 hours, IL-2 ELISA
Method: Jurkat cells were placed in a 96 well plate (0.5 million cells per well in 1% FBS medium) then a test compound of this invention was added at different concentrations. After 10 minutes, the cells were activated with PHA. (final concentration 2.5 μg/mL) and incubated for 20 hours at 37° C. under CO2. The final volume was 200 μL. Following incubation, the cells were centrifuged and the supernatants collected and stored at −70° C. prior to assaying for IL-2 production. A commercial ELISA kit (IL-2 Eli-pair, Diaclone Research, Besancon, France) was used to detect production of IL-2, from which dose response curves were obtained. The IC50 value was calculated as the concentration at which 50% of maximum IL-2 production after stimulation was inhibited versus a non-stimulation control.

| IC50 [nM] | Structure (SMILES) |
| --- | --- |
| 25 to 50 | Cc1ccc(-c2ncco2)cc1-c1ccc(NC(=O)Nc2ncncc2C)cc1 [Compound 74, 1-(2′-Methyl-5′-(oxazol-2-yl)biphenyl-4-yl)-3-(5-methylpyrimidin-4-yl)urea] |
| 500 to 1000 | Cc1ccc(-c2ncco2)cc1-c1ccc(/N=C/c2c(F)cccc2F)cc1 [Compound 76, (E)-N-(2,6-difluorobenzylidene)-2′-methyl-5′-(oxazol-2-yl)biphenyl-4-amine] |
| 50 to 500 | COC(=O)c1ccc(C)c(-c2ccc(NNC(=O)c3c(F)cccc3F)cc2)c1 [Compound 77, methyl 4′-(2-(2,6-difluorobenzoyl) hydrazinyl)-6-methylbiphenyl-3-carboxylate] |
| 50 to 500 | Cc1ccc(-c2ncco2)cc1-c1ccc(NS(=O)(=O)c2c(F)cccc2F)cc1 [Compound 1, 2,6-Difluoro-N-(2′-methyl-5′-oxazol-2-yl-biphenyl-4-yl)-benzenesulfonamide] |
| < 25 | Cc1ccc(-c2cnco2)cc1-c1ccc(NC(=O)Nc2c(F)cccc2F)cc1 [Compound 4, 1-(2,6-Difluoro-phenyl)-3-(2′-methyl-5′-oxazol-5-yl-biphenyl-4-yl)-urea] |
